# Experimental data published in patent US20100029675A1, “Pyrimidine-2, 4-diamine JAK2 Kinase inhibiting anti-inflammation use” (priority 2008, published 2010).
# Assays:
# [1] = test system: JAK2-dependent phosphorylation of STAT5 (phospho-Y694) in AGS gastric cancer cell line; assay: Western blot of STAT5 phosphorylation in AGS cells; assay type: cell-based; conditions: 24 hours, 5-10 uM, densitometry
# Description: (§1) In order to detect specific inhibition of JAK2 enzyme in cell culture, Western blot assays may also be performed. For this, cells which have been treated with a potential JAK2 inhibitor are lysed with a buffer specific for the isolation and preservation of proteins (1% Nonidet P-40, 120 mM NaCl, 30 mM Tris pH 7.4, 1:100 Protease Inhibitor Cocktail III [Calbiochem/EMD Biosciences], 1:100 Phosphatase Inhibitor Cocktail 1 [Sigma-Aldrich, Saint Louis, Mo.], 1:100 Phosphatase Inhibitor Cocktail 2 [Sigma-Aldrich, Saint Louis, Mo.]). The protein concentration in these lysates is then quantified using the BCA Protein Assay Kit (Pierce). Known amounts of protein, e.g. 50 ug, are loaded onto 10% SDS-polyacrylamide gels and are subjected to reducing, denaturing SDS-PAGE. […]
# (§2) In this example, Compound 1-4 is shown to reduce the JAK2-dependent phosphorylation of STAT3 and STAT5 in the AGS gastric cancer cell line. […] Following incubation, cells were lysed and total protein isolated and quantified. […] Densitometry analysis was performed in order to quantify the amount of STAT3 and STAT5 phosphorylation in these treated cells. Phospho-STAT3 and phospho-STAT5 were compared to total STAT3 and STAT5 and the proportion of STAT phosphorylation relative to untreated controls was determined.
# [2] = test system: JAK2-dependent phosphorylation of STAT3 (phospho-Y705) in AGS gastric cancer cell line; assay: Western blot of STAT3 phosphorylation in AGS cells; assay type: cell-based; conditions: 24 hours, 5-10 uM, densitometry
# Description: as §1, §2
compound,measurement,setting,value
"CN1CCN(c2ccc(Nc3nccc(Nc4ccc(F)c(Cl)c4)n3)cc2)CC1 [Compound 1-4, N4-(3-chloro-4-fluorophenyl)-N2-(4-(4-methylpiperazin-1-yl)phenyl)pyrimidine-2,4-diamine]",STAT5 phosphorylation relative to untreated controls,[1],reduce
same,STAT3 phosphorylation relative to untreated controls,[2],reduce
